Experiment [1] is described as follows: Inhibitory activity against endothelial nitric oxide synthase (eNOS).
A short description of experiment [2]: Inhibitory activity against Inducible nitric oxide synthase.
The nature of experiment [3]: Inhibitory activity against neuronal nitric oxide synthase.
Experiment [4] is described as follows: Selectivity for neuronal over endothelial nitric oxide synthase.

Structures are written as SMILES. Peptide text beside a SMILES is read from it. A value given as a limit tells only on which side of the number the result lay.

The term Ki denotes a measure of affinity in units of concentration, obtained from inhibition or displacement. Low values mean higher affinity, high ones lower affinity. On to `NC(=O)[C@H](N)NC(=O)[C@@H](N)CCC/N=C(/N)N[N+](=O)[O-]`, for which the Ki stood at 261 µM in experiment [1], 61 µM in experiment [2] and 1.1 µM in experiment [3]. This molecule registered a Selectivity in experiment [4] of 237.

In the case of `[H]/N=C(/NCCC[C@H](N)C(=O)N[C@H]1CNC(C(N)=O)C1)N[N+](=O)[O-]` (stereo partly drawn), the results for the Ki in experiment [2] and in experiment [3] were 29.5 µM and 0.074 µM, respectively.

On to `NCCCNC[C@@H](N)CCC/N=C(\N)N[N+](=O)[O-]`, for which the results for the Ki in experiment [1] and in experiment [2] were 411 µM and 123 µM, respectively.

For `N/C(=N\CCC[C@@H](NC(=O)[C@H](N)Cc1ccccc1)C(=O)O)N[N+](=O)[O-]` (HELM PEPTIDE1{[dF].[N=C(NCCC[C@@H](N[*:1])C(=O)O)N[N+](=O)[O-]]}$$$$V2.0), the results for the inhibition constant (Ki) in experiment [1], in experiment [2] and in experiment [3] were 90 µM, 13600 µM and 17 µM, respectively. In addition, in experiment [4], the Selectivity is 5.3.

For `NCCCC[C@H](N)C(=O)N[C@H](CCC/N=C(\N)N[N+](=O)[O-])C(N)=O` (HELM PEPTIDE1{K.[N=C(NCCC[C@@H](N[*:1])C(=O)[*:2])N[N+](=O)[O-]].[am]}$$$$V2.0), the values for the inhibition constant Ki in experiment [1], in experiment [2] and in experiment [3] were 229 µM, 4700 µM and 1.7 µM, respectively.

For `NC[C@H](NC(=O)[C@@H](N)CCC/N=C(\N)N[N+](=O)[O-])C(N)=O` (HELM PEPTIDE1{[N=C(NCCC[C@H](N)C(=O)[*:2])N[N+](=O)[O-]].[NC[C@H](N[*:1])C(=O)[*:2]].[am]}$$$$V2.0), the inhibition constant Ki in experiment [1] came out at 200 µM; in experiment [2], 25 µM; in experiment [3], 0.31 µM.

With `NCc1ccc(NC[C@@H](N)CCC/N=C(\N)N[N+](=O)[O-])cc1`, the results for the inhibition constant (Ki) in experiment [1], in experiment [2] and in experiment [3] were 409 µM, 335 µM and 1.37 µM, respectively. This molecule had a Selectivity in experiment [4] of 299.

As to `N/C(=N\CCC[C@H](N)CNCc1cccnc1)N[N+](=O)[O-]`, the Ki in experiment [1] came out at 193 µM; in experiment [2], 395 µM; in experiment [3] it was 0.76 µM. In experiment [4], this molecule had a Selectivity of 254.

Regarding `NCc1ccccc1NC[C@@H](N)CCC/N=C(\N)N[N+](=O)[O-]`, the inhibition constant Ki in experiment [1] was determined as 39.8 µM; in experiment [2], 29.3 µM; in experiment [3], 5.55 µM. In experiment [4], the Selectivity is 7.17.

Turning to `CCCCC[C@H]1NC(=N)C[C@H]1C`, the Ki in experiment [1] is 226 µM; in experiment [2] it was 0.25 µM; in experiment [3], 3.2 µM.

Consider `NCNC[C@@H](N)CCC/N=C(/N)N[N+](=O)[O-]`, for which the inhibition constant Ki in experiment [1] was found to be 314 µM; in experiment [2] it was 39 µM; in experiment [3] it was 0.12 µM. The Selectivity in experiment [4] is 2580.

Turning to `N=C(NCCC[C@H](N)C(=O)N[C@@H]1CN[C@@H](C(N)=O)C1)N[N+](=O)[O-]`, the results for the Ki in experiment [1] and in experiment [2] were 110 µM and 200 µM, respectively.

`NCc1cccc(NC[C@@H](N)CCC/N=C(\N)N[N+](=O)[O-])c1`: the inhibition constant Ki in experiment [1] was determined as 194 µM; in experiment [2] it was 80 µM; in experiment [3], 0.21 µM.

Turning to `NCCCC[C@@H](N)C(=O)N[C@H](CCC/N=C(/N)N[N+](=O)[O-])C(N)=O` (HELM PEPTIDE1{[dK].[N=C(NCCC[C@@H](N[*:1])C(=O)[*:2])N[N+](=O)[O-]].[am]}$$$$V2.0), the results for the Ki in experiment [1], in experiment [2] and in experiment [3] were 30 µM, 910 µM and 0.89 µM, respectively.

Turning to `COC(=O)[C@@H](CCC/N=C(\N)N[N+](=O)[O-])NC(=O)[C@@H](N)Cc1ccccc1` (HELM PEPTIDE1{F.[N=C(NCCC[C@@H](N[*:1])C(=O)[*:2])N[N+](=O)[O-]].[CO[*:1]]}$$$$V2.0), the Ki in experiment [1] turned out to be 150 µM; in experiment [2], 7500 µM; in experiment [3], 90 µM. The Selectivity in experiment [4] came out at 1.7.

Regarding `N/C(=N/CCC[C@H](N)CNc1cccnc1)N[N+](=O)[O-]`, the inhibitory constant (Ki) in experiment [1] was determined as 523 µM; in experiment [2] it was 141 µM; in experiment [3], 0.55 µM. In experiment [4], this molecule registered a Selectivity of 951.

For `NCCc1ccc(NC[C@@H](N)CCC/N=C(\N)N[N+](=O)[O-])cc1`, the Ki in experiment [3] stood at 1.66 µM.

`Cc1c(C)c2c(c(C)c1O)CC[C@@](C)(C(=O)C1CCC(c3ccc(NC(=N)c4cccs4)cc3)CC1)O2` (stereo partly drawn): the Ki in experiment [1] was 110 µM; in experiment [2], above 300 µM.

For `NC(=O)[C@@H](CCC/N=C(/N)N[N+](=O)[O-])NC(=O)[C@H](N)Cc1ccccc1`, the Ki was found to be 90 µM in experiment [1] and 17 µM in experiment [3]. This molecule registered a Selectivity in experiment [4] of 5.3.

Take `COC(=O)[C@@H](CCCNC(=N)N[N+](=O)[O-])NC(=O)[C@H](N)Cc1ccccc1` (HELM PEPTIDE1{[dF].[N=C(NCCC[C@@H](N[*:1])C(=O)[*:2])N[N+](=O)[O-]].[CO[*:1]]}$$$$V2.0): the Ki in experiment [1] stood at 5 µM; in experiment [2], 3600 µM; in experiment [3] it was 2 µM. This molecule also returned a Selectivity in experiment [4] of 2.5.
